Key:
[1] = system: Ugt1a6; test: Northern blot of liver Ugt1a6 mRNA after ip dosing; format: in vivo, mice; details: mean ± SEM
Procedure: (§1) Linking efficacy to biochemical parameters and a mechanism was limited in the initial study by only two parameters, [Se] and GPx activity. The in-vivo effects of selenazolidine compounds were then evaluated using, in addition to GPx, glutathione S-transferases (GSTs), quinone oxidoreductases (NQORs), UDP-glucuronosyltransferases (UGTs), and microsomal epoxide hydrolase (mEH). To investigate transcriptional changes of these classes of enzymes, it was necessary to develop a battery of cDNA probes for use in Northern blot analysis of RNA extracted from treated animals (Table 2).
(§2) Whether the selenaproline compounds had the ability to up-regulate the transcription of Phase II and/or other “protective” enzymes was first evaluated following a single dose of each (Table 3). […] The experiment was repeated but with a 7-day treatment regimen (Table 4), the time period for which the compounds were given in the diet before NNK administration in the tumor experiment reported in Table 1. […] With multiple doses, SCA induced Ugt1a9, an mRNA that was not changed with a single dose. […] The elevation in the Gst-mu transcript was unique to multiple OSCA treatment. The elevation of the GST-alpha mRNA was also seen with SCA treatment. Microsomal epoxide hydrolase mRNA was robustly elevated by multiple doses of all three selenaproline compounds, an effect not anticipated from the single dose experiment where not even minor changes were apparent.

[2] = system: Gst-alpha; test: Northern blot of liver Gst-alpha mRNA after ip dosing; format: in vivo, mice; details: 1 dose ip, liver RNA 24 hours after dosing, mean ± SEM
Procedure: as §1, §2

[3] = system: mEH; test: Northern blot of liver mEH mRNA after ip dosing; format: in vivo, mice; details: mean ± SEM
Procedure: as §1, §2

[4] = system: Ugt1a1; test: Northern blot of liver Ugt1a1 mRNA after ip dosing; format: in vivo, mice; details: mean ± SEM
Procedure: as §1, §2

[5] = Stability in aqueous solution; format: physicochemical; details: compared with MSCA; previous studies
Excerpt: Accordingly, additional compounds were synthesized with a range of partition coefficients (Table 6) and evaluated their ability to alter gene transcription following single (Table 7) and multiple (Table 8) doses. The new 2-(R,S)-substituted-4(R)-carboxylic acid derivatives involving 2-butyl, 2-cyclohexyl, 2-phenyl and 2-(2-hydroxyphenyl) were synthesized utilizing the reaction of selenocysteine and the appropriate carboxaldehyde. They were purified by crystallization from ethanol/acetonitrile mixtures and their molecular structures were verified by spectral methods of analysis (′HNMR, ^13CNMR, ESIMs and HRMS).

[6] = system: GPx; test: Northern blot of liver GPx mRNA after ip dosing; format: in vivo, mice; details: mean ± SEM
Procedure: as §1, §2

[7] = sALT (hepatotoxicity) after 7 daily ip doses; format: in vivo; design: unit not given here; details: 7 daily doses ip, 1.25 mg Se/kg, with corn oil; untreated mice 37.5 ± 2.9
Excerpt: Many of the mRNA changes seen with a single dose were not sustained with multiple dosing. Changes in Ugt transcripts after multiple dosing were noticeably absent. Unique to BSCA among the four new compounds investigated was its ability to induce Gst-alpha, Gst-mu and GPx mRNAs. For the Gst-alpha transcripts, which appeared elevated by corn oil, the BSCA increase was much greater than the vehicle alone (8-fold versus 2-fold) and was statistically significant (p<0.05). BSCA shared with PhOHSCA the ability to elevate mEH mRNA.

[8] = system: Gst-mu; test: Northern blot of liver Gst-mu mRNA after ip dosing; format: in vivo, mice; details: mean ± SEM
Procedure: as §1, §2

[9] = system: Ugt1a9; test: Northern blot of liver Ugt1a9 mRNA after ip dosing; format: in vivo, mice; details: 1.25 mg Se/kg, mean ± SEM
Procedure: as §1, §2

[10] = system: GPx; test: Hepatic cytosolic GPx (H202) activity after 7 daily ip doses; format: in vivo, mice; details: 7 daily doses ip, hepatic cytosol; naive 894 ± 36
[11] = system: GST; test: Hepatic cytosolic GST (CDNB) activity after 7 daily ip doses; format: in vivo, mice; details: 7 daily doses ip, hepatic cytosol; naive 5248 ± 503
[12] = Body weight gain and liver weight in four-month feeding study; format: in vivo; details: mice, diet 15 ppm Se, NNK
Procedure: (§3) Where indicated, mice (16 g) were given diets fortified with SCA, MSCA or OSCA (15 ppm Se) for 1 week prior to NNK (10 umol, ip). Two other groups received the unmodified AIN-76A diet, with and without NNK administration. All groups were maintained on their pretreatment diet until the animals were sacrificed after 16 weeks. Liver GPx activity is expressed as μmol NADPH oxidized [in regenerating GSH]/min/mg 10,000 g×20 min supernatant protein; RBC activity as μmol/min/mg RBC lysate hemoglobin.

[13] = system: NNK lung tumor; test: NNK lung tumor four-month feeding study; format: in vivo; details: mice, diet 15 ppm Se from 1 week prior to NNK (10 umol, ip), sacrificed after 16 weeks
Procedure: (§4) Three novel selenazolidines, 2-methyl-, 2-oxo- and 2-unsubstituted (i.e., selenaproline) selenazolidine-4[R]-carboxylic acid (MSCA, OSCA, and SCA respectively) that had been synthesized as prodrugs of selenocysteine were evaluated for their potential to act as cancer chemopreventive agents. [Se] and GPx activity were evaluated.
as §3

[14] = system: GPx; test: Hepatic and RBC (tButylOOH) GPx activity in four-month feeding study; format: in vivo; details: mice, diet 15 ppm Se, NNK
Procedure: as §4, §3

[15] = 1 dose ip, 1.25 mg Se/kg in corn oil, liver RNA 24 hours after dosing
[16] = 7 daily doses ip, 1.25 mg Se/kg, with corn oil, liver RNA 24 hours after the last dose
[17] = 1 dose ip, 1.25 mg Se/kg, liver RNA 24 hours after dosing
[18] = 7 daily doses ip, 1.25 mg Se/kg, liver RNA 24 hours after the last dose

Question: Which “Ugt1a6 mRNA” value [1, 15] does the source give for `CCCCC1NC(C(=O)O)C[Se]1` (stereo not drawn) [BSCA, 2-n-butyl-SCA] here?
Answer: 1.95 ± 0.21 fold change from naive

Question: What about the “Ugt1a6 mRNA” value [1, 16] of the same compound?
Answer: 1.84 ± 0.54 fold change from naive

Question: And the “Gst-alpha mRNA” value ([2]; 1.25 mg Se/kg in corn oil)?
Answer: 1.39 ± 0.05 fold change from naive

Question: And the “mEH mRNA” value [3, 15]?
Answer: 0.69 ± 0.19 fold change from naive

Question: And the “Ugt1a1 mRNA” value [4, 15]?
Answer: 0.83 ± 0.28 fold change from naive

Question: And the “Ugt1a1 mRNA” value [4, 16]?
Answer: 1.21 ± 0.26 fold change from naive

Question: What about the “Stability in aqueous solution” value [5] of the same compound?
Answer: much more stable in aqueous solution than MSCA

Question: What about the “GPx mRNA” value [6, 15] of the same compound?
Answer: 1.58 ± 0.46 fold change from naive

Question: What about the sALT [7] of the same compound?
Answer: 37.1 ± 2.7

Question: And the “Gst-mu mRNA” value [8, 15]?
Answer: 1.58 ± 0.46 fold change from naive

Question: What about the “Ugt1a9 mRNA” value ([9]; 7 daily doses ip, with corn oil, liver RNA 24 hours after the last dose) of the same compound?
Answer: 1.69 ± 0.35 fold change from naive

Question: Which “Ugt1a6 mRNA” value [1, 17] does the source give for `O=C(O)C1C[Se]CN1` (stereo not drawn) [SCA, selenazolidine-4-carboxylic acid] here?
Answer: 1.01 ± 0.29 fold change from naive

Question: And the “Ugt1a6 mRNA” value [1, 18]?
Answer: 1.01 ± 0.07 fold change from naive

Question: What about the “Gst-alpha mRNA” value ([2]; 1.25 mg Se/kg) of the same compound?
Answer: 1.15 ± 0.28 fold change from naive

Question: What about the “mEH mRNA” value [3, 17] of the same compound?
Answer: 1.36 ± 0.40 fold change from naive

Question: What about the “mEH mRNA” value [3, 18] of the same compound?
Answer: 3.25 ± 1.80 fold change from naive

Question: And the “GPx (H202) activity” value [10]?
Answer: 862 ± 81 nmol/mg cytosol (100,000 g supernatant) protein/min

Question: And the “GST (CDNB) activity” value [11]?
Answer: 6576 ± 595 nmol/mg cytosol (100,000 g supernatant) protein/min

Question: And the “Body wt gain (%)” value [12]?
Answer: 51.1%

Question: And the “Liver weight” value [12]?
Answer: 1.18 ± 0.02 g

Question: And the “Ugt1a1 mRNA” value [4, 17]?
Answer: 1.03 ± 0.18 fold change from naive

Question: What about the “Ugt1a1 mRNA” value [4, 18] of the same compound?
Answer: 2.25 ± 0.25 fold change from naive

Question: What about the “NNK Tumors” value [13] of the same compound?
Answer: 6.7 ± 0.8

Question: And the “GPx (1.5 kb) mRNA” value [6, 17]?
Answer: 1.12 ± 0.04 fold change from naive

Question: And the “GPx mRNA” value [6, 18]?
Answer: 1.55 ± 0.76 fold change from naive

Question: What about the “Gst-mu mRNA” value [8, 17] of the same compound?
Answer: 1.28 ± 0.09 fold change from naive

Question: What about the “Gst-mu mRNA” value [8, 18] of the same compound?
Answer: 0.58 ± 0.11 fold change from naive

Question: And the “Ugt1a9 mRNA” value ([9]; 1 dose ip, liver RNA 24 hours after dosing)?
Answer: 1.35 ± 0.50 fold change from naive

Question: What about the “RBC (tButylOOH) GPx” value ([14]; RBC) of the same compound?
Answer: 253 ± 33 μmol/min/mg RBC lysate hemoglobin

Question: And the “Hepatic (tButylOOH) GPx” value ([14]; liver)?
Answer: 409 ± 46 μmol NADPH oxidized/min/mg 10,

— US7425635B2, “Prodrugs and conjugates of thiol- and selenol-containing compounds and methods of use thereof” (University of Utah Research Foundation, priority 1997, dated 2008)
